Common to all, as to test: biochemical
What all share (set-up): KINOMEscan scanMAX competition binding, DNA-tagged kinases, qPCR read-out, percent control at 300 nM
(In qPCR the cycle at which signal appears reflects the starting amount.)

Assay [1] has as its target T1, EPHB6 (Homo sapiens, UniProt O15197).
T1 sequence (O15197 1-1021): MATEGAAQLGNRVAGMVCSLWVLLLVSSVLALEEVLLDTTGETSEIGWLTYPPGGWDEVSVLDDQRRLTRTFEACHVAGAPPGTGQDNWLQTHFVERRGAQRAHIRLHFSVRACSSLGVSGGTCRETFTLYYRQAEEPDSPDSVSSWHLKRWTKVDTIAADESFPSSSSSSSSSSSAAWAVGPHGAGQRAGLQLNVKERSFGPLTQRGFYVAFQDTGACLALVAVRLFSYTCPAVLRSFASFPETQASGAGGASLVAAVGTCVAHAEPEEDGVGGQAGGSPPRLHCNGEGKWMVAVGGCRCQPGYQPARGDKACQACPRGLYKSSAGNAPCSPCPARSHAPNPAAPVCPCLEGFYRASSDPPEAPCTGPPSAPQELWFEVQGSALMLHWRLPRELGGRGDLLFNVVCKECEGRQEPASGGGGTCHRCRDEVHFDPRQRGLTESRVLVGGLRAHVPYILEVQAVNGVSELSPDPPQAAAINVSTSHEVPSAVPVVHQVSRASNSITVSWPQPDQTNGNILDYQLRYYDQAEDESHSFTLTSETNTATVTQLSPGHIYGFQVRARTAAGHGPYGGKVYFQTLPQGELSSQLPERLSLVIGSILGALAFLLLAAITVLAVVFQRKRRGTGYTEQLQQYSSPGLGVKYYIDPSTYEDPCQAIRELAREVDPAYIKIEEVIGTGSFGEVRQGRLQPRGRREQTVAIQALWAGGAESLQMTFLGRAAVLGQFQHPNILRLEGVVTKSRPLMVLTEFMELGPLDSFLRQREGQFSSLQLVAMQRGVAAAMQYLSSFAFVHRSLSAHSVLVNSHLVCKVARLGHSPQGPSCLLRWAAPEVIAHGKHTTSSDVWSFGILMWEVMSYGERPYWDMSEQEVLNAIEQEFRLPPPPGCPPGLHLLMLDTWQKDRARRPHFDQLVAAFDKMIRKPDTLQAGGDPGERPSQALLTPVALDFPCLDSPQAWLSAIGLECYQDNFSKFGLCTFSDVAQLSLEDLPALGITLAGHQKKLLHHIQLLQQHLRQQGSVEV

Assay [2] deals with CSK (Homo sapiens, UniProt P41240).
Assay [3] concerns the target PDGFRB (Homo sapiens, UniProt P09619).
Assay [4] deals with PIK3CA(I800L) (Homo sapiens, UniProt P42336, I800L).
The target in assay [5] is PKN1 (Homo sapiens, UniProt Q16512).
The target of assay [6] is T2, JAK2(JH1domain-catalytic) (Homo sapiens, UniProt O60674).
T2 construct: JH1domain-catalytic

The target of assay [7] is T3, EPHB2 (Homo sapiens, UniProt P29323).
T3 sequence (P29323 1-1055): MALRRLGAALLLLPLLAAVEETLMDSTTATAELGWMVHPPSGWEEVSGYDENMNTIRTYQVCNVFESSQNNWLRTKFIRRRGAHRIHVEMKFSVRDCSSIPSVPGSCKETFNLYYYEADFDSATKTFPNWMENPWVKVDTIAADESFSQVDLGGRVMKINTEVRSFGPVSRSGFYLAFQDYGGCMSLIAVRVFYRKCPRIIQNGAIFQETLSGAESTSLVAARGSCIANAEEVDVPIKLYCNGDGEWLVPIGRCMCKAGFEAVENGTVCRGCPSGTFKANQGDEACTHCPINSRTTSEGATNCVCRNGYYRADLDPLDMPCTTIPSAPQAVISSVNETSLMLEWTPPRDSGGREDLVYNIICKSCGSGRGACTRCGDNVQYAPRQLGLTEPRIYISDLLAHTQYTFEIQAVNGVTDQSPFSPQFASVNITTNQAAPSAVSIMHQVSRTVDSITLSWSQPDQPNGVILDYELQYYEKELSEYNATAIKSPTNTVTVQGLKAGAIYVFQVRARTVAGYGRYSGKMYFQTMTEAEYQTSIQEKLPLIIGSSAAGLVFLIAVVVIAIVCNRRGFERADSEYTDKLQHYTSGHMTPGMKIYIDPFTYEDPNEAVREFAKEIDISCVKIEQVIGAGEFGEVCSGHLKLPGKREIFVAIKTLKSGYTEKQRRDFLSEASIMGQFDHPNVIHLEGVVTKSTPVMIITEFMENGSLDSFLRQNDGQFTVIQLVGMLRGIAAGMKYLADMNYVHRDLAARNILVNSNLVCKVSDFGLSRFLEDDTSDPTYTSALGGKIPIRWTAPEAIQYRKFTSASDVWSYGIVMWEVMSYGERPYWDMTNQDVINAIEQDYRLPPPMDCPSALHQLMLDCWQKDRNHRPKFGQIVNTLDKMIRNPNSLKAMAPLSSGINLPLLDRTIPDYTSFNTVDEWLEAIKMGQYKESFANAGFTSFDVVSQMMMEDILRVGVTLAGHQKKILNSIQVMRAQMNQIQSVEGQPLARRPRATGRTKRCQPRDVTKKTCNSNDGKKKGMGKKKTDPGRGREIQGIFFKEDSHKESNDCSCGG

Assay [8] deals with T4, VEGFR2 (Homo sapiens, UniProt P35968).
T4 construct: gene KDR

Setting [9] is: read-out: Percent control / Tirabrutinib.
[10] abbreviates: read-out: Percent control / Acalabrutinib.
The mark [11] stands for this setting: read-out: Percent control / Ibrutinib.
The mark [12] stands for this setting: read-out: Percent control / Zanubrutinib.

Read-outs that look alike come from different tables or passages of the source.

The results in this text go back to paper PMC10004634 (PLOS ONE, 2023).

Chain of PDGFRB (P09619 whole entry): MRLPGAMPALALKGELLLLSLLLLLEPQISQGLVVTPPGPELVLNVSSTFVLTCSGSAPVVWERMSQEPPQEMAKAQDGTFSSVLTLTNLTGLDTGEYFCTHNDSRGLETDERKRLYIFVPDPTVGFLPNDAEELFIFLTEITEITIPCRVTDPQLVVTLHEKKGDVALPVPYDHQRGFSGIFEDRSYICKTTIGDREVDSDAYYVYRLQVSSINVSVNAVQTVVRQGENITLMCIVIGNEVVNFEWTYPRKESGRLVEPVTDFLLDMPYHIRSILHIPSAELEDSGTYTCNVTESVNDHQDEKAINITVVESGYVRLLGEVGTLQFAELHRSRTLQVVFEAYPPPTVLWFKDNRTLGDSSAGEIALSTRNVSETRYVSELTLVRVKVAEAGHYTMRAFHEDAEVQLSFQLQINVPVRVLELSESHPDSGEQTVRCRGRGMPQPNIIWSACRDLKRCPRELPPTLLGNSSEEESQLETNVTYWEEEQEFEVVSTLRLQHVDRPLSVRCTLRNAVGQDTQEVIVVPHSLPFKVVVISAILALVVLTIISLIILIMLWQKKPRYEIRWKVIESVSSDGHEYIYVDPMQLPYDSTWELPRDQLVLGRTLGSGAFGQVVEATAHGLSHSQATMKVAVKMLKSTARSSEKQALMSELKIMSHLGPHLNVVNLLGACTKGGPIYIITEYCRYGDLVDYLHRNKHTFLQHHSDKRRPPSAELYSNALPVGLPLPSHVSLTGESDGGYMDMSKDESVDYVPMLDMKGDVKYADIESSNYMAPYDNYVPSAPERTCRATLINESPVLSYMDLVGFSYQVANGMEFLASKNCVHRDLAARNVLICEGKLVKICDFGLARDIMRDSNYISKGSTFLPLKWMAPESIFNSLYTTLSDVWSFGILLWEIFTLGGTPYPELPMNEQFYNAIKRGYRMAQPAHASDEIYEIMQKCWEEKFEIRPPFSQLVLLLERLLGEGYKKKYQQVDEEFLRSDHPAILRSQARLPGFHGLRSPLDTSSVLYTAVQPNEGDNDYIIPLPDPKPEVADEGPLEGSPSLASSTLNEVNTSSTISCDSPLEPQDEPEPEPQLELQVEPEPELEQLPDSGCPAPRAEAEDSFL
Chain of CSK (P41240 whole entry): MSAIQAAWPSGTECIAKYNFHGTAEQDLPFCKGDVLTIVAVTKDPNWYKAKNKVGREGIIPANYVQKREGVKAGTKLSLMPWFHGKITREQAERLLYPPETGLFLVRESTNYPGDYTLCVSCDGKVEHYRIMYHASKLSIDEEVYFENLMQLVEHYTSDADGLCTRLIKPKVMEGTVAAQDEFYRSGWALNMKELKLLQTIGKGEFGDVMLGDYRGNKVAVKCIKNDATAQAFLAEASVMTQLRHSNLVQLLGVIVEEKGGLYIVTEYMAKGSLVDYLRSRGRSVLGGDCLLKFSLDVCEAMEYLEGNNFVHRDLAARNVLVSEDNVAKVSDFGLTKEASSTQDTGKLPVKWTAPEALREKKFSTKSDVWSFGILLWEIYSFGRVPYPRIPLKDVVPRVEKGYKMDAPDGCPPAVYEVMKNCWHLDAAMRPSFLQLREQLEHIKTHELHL
Chain of PIK3CA(I800L) (P42336 whole entry I800L): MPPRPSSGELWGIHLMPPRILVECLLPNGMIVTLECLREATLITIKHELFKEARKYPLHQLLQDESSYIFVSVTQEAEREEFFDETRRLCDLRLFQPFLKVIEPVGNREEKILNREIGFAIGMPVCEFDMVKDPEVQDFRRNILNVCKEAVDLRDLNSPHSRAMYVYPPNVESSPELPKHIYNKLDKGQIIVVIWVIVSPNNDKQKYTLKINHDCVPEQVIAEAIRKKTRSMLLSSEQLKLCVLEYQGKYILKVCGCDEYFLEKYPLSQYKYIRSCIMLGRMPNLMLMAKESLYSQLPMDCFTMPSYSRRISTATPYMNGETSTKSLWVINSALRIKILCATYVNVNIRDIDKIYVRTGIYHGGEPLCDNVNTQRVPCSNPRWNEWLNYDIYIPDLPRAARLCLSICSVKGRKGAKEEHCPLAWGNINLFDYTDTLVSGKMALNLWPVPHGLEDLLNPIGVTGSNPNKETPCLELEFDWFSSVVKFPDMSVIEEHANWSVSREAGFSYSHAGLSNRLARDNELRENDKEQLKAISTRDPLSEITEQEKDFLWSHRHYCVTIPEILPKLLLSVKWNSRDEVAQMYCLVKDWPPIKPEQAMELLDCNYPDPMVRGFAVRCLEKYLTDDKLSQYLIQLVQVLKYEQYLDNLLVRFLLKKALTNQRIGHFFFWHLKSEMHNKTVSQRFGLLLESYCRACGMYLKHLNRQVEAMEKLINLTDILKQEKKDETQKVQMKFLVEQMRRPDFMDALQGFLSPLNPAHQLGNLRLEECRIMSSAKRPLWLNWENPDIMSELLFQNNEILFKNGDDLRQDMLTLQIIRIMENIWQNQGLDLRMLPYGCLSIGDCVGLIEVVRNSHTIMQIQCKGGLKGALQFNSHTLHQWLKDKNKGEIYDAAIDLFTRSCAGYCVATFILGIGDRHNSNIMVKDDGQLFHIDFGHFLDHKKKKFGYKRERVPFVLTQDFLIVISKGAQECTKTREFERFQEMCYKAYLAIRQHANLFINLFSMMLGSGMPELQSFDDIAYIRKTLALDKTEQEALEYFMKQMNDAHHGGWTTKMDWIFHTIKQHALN
Chain of PKN1 (Q16512 whole entry): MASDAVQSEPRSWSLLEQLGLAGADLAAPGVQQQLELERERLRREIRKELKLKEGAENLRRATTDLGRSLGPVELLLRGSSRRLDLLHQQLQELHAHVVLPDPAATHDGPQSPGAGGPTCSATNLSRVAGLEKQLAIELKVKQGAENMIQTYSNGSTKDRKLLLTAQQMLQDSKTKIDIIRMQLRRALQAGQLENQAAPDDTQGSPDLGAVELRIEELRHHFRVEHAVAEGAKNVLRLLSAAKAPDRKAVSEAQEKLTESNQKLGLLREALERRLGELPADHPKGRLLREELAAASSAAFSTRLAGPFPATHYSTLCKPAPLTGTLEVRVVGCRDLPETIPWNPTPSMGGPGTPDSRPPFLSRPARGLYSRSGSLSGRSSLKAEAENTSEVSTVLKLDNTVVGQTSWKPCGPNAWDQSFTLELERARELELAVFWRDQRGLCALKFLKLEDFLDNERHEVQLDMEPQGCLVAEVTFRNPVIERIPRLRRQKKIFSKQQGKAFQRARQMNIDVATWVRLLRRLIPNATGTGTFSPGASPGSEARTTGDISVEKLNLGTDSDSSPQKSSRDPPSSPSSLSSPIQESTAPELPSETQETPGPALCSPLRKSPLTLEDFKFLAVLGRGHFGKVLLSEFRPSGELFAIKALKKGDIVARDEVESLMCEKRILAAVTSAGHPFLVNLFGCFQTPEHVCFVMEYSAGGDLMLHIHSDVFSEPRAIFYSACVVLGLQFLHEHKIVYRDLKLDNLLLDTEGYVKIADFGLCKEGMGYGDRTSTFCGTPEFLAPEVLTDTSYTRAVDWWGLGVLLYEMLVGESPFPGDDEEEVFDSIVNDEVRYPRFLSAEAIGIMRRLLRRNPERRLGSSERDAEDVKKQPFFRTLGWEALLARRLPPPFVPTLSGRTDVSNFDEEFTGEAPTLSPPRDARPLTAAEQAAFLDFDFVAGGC
T2 sequence (O60674 whole entry): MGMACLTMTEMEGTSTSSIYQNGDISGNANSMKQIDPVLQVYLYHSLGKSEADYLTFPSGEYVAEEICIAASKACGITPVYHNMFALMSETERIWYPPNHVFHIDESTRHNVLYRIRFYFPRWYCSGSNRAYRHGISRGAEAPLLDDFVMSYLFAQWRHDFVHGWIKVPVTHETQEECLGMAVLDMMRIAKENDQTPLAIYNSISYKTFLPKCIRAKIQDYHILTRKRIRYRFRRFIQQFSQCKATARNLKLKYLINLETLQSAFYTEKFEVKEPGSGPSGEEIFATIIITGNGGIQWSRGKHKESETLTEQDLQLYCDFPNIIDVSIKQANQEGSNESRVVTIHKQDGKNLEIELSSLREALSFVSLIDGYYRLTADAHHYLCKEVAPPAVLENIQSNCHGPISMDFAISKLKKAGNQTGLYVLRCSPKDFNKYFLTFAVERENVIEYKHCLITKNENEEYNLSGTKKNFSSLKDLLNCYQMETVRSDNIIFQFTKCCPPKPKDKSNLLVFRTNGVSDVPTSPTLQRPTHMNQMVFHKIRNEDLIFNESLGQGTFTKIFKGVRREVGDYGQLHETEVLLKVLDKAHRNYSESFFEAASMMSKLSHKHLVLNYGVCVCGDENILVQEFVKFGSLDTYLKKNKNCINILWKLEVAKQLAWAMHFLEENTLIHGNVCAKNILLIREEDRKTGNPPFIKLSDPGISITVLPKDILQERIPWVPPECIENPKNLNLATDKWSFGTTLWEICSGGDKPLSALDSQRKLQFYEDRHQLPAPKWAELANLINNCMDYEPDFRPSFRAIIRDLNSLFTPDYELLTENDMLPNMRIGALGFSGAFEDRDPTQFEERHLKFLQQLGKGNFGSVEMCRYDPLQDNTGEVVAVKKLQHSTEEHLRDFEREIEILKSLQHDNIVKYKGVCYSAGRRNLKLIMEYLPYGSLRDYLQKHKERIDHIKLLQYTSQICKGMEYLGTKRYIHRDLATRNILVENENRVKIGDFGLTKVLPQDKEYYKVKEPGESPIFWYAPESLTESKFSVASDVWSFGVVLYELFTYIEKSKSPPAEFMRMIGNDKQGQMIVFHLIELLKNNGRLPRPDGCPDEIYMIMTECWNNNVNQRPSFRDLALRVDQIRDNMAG

Consider `CC#CC(=O)N1CC[C@@H](n2c(=O)n(-c3ccc(Oc4ccccc4)cc3)c3c(N)ncnc32)C1` [Tirabrutinib], for which the remaining binding at 0.3 µM came out at 70% in assay [1] (setting [9]); 47% in assay [2] (setting [9]); 79% in assay [3] (setting [9]); 91% in assay [4] (setting [9]); 99% in assay [5] (setting [9]); 77% in assay [6] (setting [9]). The remaining binding at 0.3 µM in assay [7] (setting [9]) is 87%.
For the compound `CC#CC(=O)N1CCC[C@H]1c1nc(-c2ccc(C(=O)Nc3ccccn3)cc2)c2c(N)nccn12` [Acalabrutinib], the remaining binding at 0.3 µM was determined as 85% in assay [1] (setting [10]); 85% in assay [2] (setting [10]); 93% in assay [3] (setting [10]); 81% in assay [5] (setting [10]); 98% in assay [8] (setting [10]); 85% in assay [6] (setting [10]). Also, the remaining binding at 0.3 µM in assay [7] (setting [10]) came to 89%.
With `C=CC(=O)N1CCC[C@@H](n2nc(-c3ccc(Oc4ccccc4)cc3)c3c(N)ncnc32)C1` [Ibrutinib], the remaining binding at 0.3 µM came out at 46% in assay [1] (setting [11]); 1.4% in assay [2] (setting [11]); 38% in assay [3] (setting [11]); 71% in assay [4] (setting [11]); 95% in assay [8] (setting [11]).
Take `C=CC(=O)N1CCC([C@@H]2CCNc3c(C(N)=O)c(-c4ccc(Oc5ccccc5)cc4)nn32)CC1` [Zanubrutinib]: the remaining binding at 0.3 µM in assay [1] (setting [12]) amounted to 96%; in assay [3] (setting [12]) it was 100%; in assay [4] (setting [12]), 68%; in assay [5] (setting [12]) it was 100%; in assay [8] (setting [12]) it was 100%; in assay [6] (setting [12]), 96%. Also, the remaining binding at 0.3 µM in assay [7] (setting [12]) is 100%.
